Values after ≈ are worked out from the molar mass of the structure shown. Where two headings read alike, the source gives them in different places. Values belong to the molecule of their own block, whether it stands above or below them.
Experiments:
[1] = test system: iNOS biosynthesis of NO in C2C12 myocytes; experiment: Inhibition of LTI (LPS/TNFα/IFγ)-stimulated iNOS biosynthesis of NO in C2C12 myocytes; assay type: cell-based, murine; settings: Mus musculus
Description: The Model—The C2C12 murine myocyte model was used in this Example. This model was selected to serve as the surrogate for muscle cells of the bladder that are exposed to the inflammatory stimuli of the invading bacteria, modeled by lipopolysaccharide (LPS), as well as the counter-inflammatory responses of the bladder infiltrating macrophage, modeled by interferon gamma (IFγ) and tumor necrosis factor alpha (TNFα). […] A significant increase in baseline NO production in cats with feline interstitial cystitis compared with that in healthy cats has been found in smooth muscle and mucosal strips.
(§1) Cell culture and treatment—Mouse C2C12 myoblasts (American Type Culture Collection, Manassas, Va.) were maintained in Dulbecco's modified Eagle's medium (DMEM) supplemented with 10% fetal calf serum (FCS), 50 units/ml penicillin and 50 μg/ml streptomycin. As cells reached confluence, the medium was switched to the differentiation medium containing DMEM and 2% horse serum. Medium was changed every other day. After 4 additional days, the differentiated C2C12 cells had fused into myotubes, which were then treated in serum-free DMEM with either vehicle alone (0.1% DMSO), or 50, 10, 5, or 1 μg thymoquinone/mL for 1 hour and then stimulated with a cytokine mixture containing 1 μg LPS/mL, 50 ng TNFα/mL and 100 U IFγ/mL (LTI) for 20 hours. At the end of the treatment period, media were sampled for determination of NO.
Nitric oxide determination—NBD methylhydrazine (NBDM, N-methyl-4-hydrazino-7-nitrobenzofurazan) was used to detect N-methyl-4-amino-7-nitrobenzofuazan, the fluorescent product of the NBDM reagent with nitrite (Buldt A, Karst U. Determination of nitrite in waters by microplate fluorescence spectroscopy and HPLC with fluorescence detection. Anal Chem. Aug. 1, 1999; 71(15):3003-3007). In a separate, black-walled, 96-well, microtiter plate, a 7 μL aliquot of a 4.8×10^−4 mol NBDM/L solution was added to 200 μL of the supernatant media followed by the addition of 15 μL of concentrated phosphoric acid. After a reaction time of 30 minutes at ambient temperature, the fluorescence was read with 485 nm excitation filter and a 530 nm emission filter in a Packard Fluorocount spectrofluorometer (Model#BF10000, Meridan, Conn.). Fluoresence was linear in the range of 3.59×10^−7 to 1.44×10^−5 mol nitrite/L. The standard deviation was 3.5 percent for 1.44×10^−6 mol nitrite/L. Experiments were performed a minimum of three times with eight replicates per dose, capturing the median inhibitory concentration (IC50) when possible.
Calculations—The median inhibitory concentrations (IC50) and 95% confidence interval were calculated using CalcuSyn (BIOSOFT, Ferguson, Mo.). This statistical package performs multiple drug dose-effect calculations using the Median Effect methods described by Chou and Talalay [Chou T C, Talalay P. Quantitative analysis of dose-effect relationships: the combined effects of multiple drugs or enzyme inhibitors. Adv Enzyme Regul. 1984; 22:27-55].
The Model—The C2C12 murine myocyte model as described in Example 1 was used.
as §1, with “units/mL” for “units/ml”, “μg/mL of the thymoquinone test formulation” for “μg thymoquinone/mL”, “IFγ/mL” for “IFγ/mL (LTI)”, “NO. […]” for “NO.”

[2] = 1500 to 3000 mg/day in humans, 19 subjects, reduced from 7.5; Jarrar 1996; cited from earlier work
[3] = test system: NO production in LPS-stimulated macrophages; settings: single stimulating agent, El-Mahmoudy 2002; cited from earlier work
[4] = pure compounds from Sigma, LTI-stimulated C2C12 myocytes as in Example 1, read-out: median inhibitory concentration

Structure (SMILES): CSCC[C@H](N)C(=O)O [Methionine]
- mean pH values of the urine after treatment [2]: 5.5

Structure (SMILES): Cc1ccc(C(C)C)cc1O [carvacrol]
- IC50 ([1]; C2C12, read-out: median inhibitory concentration): ≥ 10 mg/L

More lines, main results first:

- IC50 [1, 4]: ≥ 10 mg/L
Structure (SMILES): Cc1ccc(C(C)C)cc1 [cymene]

- IC50 [1, 4]: ≥ 10 mg/L
Structure (SMILES): CC=Cc1ccc(OC)cc1 [anethole]

- IC50 [1, 4]: ≥ 10 mg/L
Structure (SMILES): Cc1ccc(C(C)C)c(O)c1 [thymol]

- IC50 ([1]; C2C12 myotubes, 1 h pre-treatment, then LPS/TNFα/IFγ mixture for 20 h, 95% confidence interval 1.1 to 2.3 μg/mL, read-out: median inhibitory concentration of iNOS-mediated NO production): 1.6 mg/L (≈ 9.74 µM)
- IC50 ([1]; LTI-stimulated C2C12 myocytes, adjusted for thymoquinone content, brackets = 95% confidence interval, read-out: Adjusted iNOS (IC50)): 1.6 mg/L (≈ 9.74 µM)
Structure (SMILES): CC1=CC(=O)C(C(C)C)=CC1=O [thymoquinone]
- IC50 inhibiting NO production [3]: 1.4 to 2.8 mg/L

Reference: patent US8029831B2, “Formulations containing thymoquinone for urinary health” (Bionexus, Ltd., priority 2008, dated 2011)
